Values of other authors as cited in patent US20150299754A1, “STREPTOMYCES MICROFLAVUS STRAINS AND METHODS OF THEIR USE TO CONTROL PLANT DISEASES AND PESTS” (Bayer CropScience LP, priority 2014, published 2015).

Assays:
[1] = test system: powdery mildew; conditions: according to GB 1 507 193
[2] = test system: parasites on animals, such as pin worm; conditions: according to U.S. Pat. No. 3,849,398
[3] = test system: gram-positive, gram-negative bacteria and tubercule bacillus; conditions: according to U.S. Pat. No. 3,849,398

| SMILES | antifungal activity against powdery mildew [1] | parasiticidal action [2] | antibacterial activity [3] |
| --- | --- | --- | --- |
| NC(N)=NCC(O)CC(O)(C(=O)O)[C@H]1O[C@@H](n2cc(CO)c(N)nc2=O)C=C[C@@H]1NC(=O)[C@@H](N)CO (stereo partly drawn) [B-98891] | antifungal activity |  |  |
| CNCC(=O)NC(CO)C(=O)NC1C(C(N)=O)OC(n2ccc(N)nc2=O)C(O)C1O (stereo not drawn) [gougerotin] |  | parasiticidal action | weak antibacterial activity |
